Paper PMC13129536 (The Journal of Biological Chemistry, 2026)

System: M. tuberculosis Erdman
Experiment: Pathogenic (BSL3) tuberculosis CFU assay
Format: cell-based
Settings: Mycobacterium tuberculosis, 96 h; for IC50: read-out: IC50 (CFU/mL at 96 hours); for IC90: read-out: IC90 (CFU/mL at 96 hours)

c1ccc(-c2nc3cc(Cc4ccc5[nH]c(-c6ccccn6)nc5c4)ccc3[nH]2)nc1 [Compound F0850-5995]
IC50: ~1.12 µM
IC90: 6.64 ± 3.86 µM

Cc1ccc(C)c(Nc2nc(NCc3ccccc3)c3ccccc3n2)c1 [Compound F0909-0124]
IC50: ~8.97 µM

C[C@@H](O)[C@H]1C(=O)N2C(C(=O)O)=C(S[C@@H]3CN[C@H](C(=O)N(C)C)C3)[C@H](C)[C@H]12 [Meropenem, meropenem, reference compound]
IC50: 0.697 ± 0.11 µg/mL
IC90: 1.16 ± 0.255 µg/mL
